In patent publication US9676721B2, “Compounds and compositions for the inhibition of NAMPT” (FORMA TM, LLC, priority 2010, dated 2017):
pIC50: −log10 of the molar value.

What was measured:
[1] = tested on: HepG2 cells; conditions: cited from earlier work
[2] = tested on: murine renal cell carcinoma; conditions: cited from earlier work
[3] = tested on: mouse mammary carcinoma; conditions: mouse mammary carcinoma model; cited from earlier work
[4] = tested on: THP-1 leukemia cell line; conditions: cited from earlier work
[5] = tested on: K562 leukemia cell line; conditions: cited from earlier work
[6] = tested on: tumor cell lines; conditions: broad range of tumor cell lines; cited from earlier work
[7] = molecular target: NAMPT (Homo sapiens (Human), UniProt P43490); assay: Biochemical Inhibition Assay (NAMPT enzymatic reaction, NMN by mass spectrometry); conditions: recombinant His-tagged NAMPT 33 nM, 1 μM NAM, 30 minutes; read-out: Biochem IC50
How it was run: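 His-tagged human NAMPT from E. coli in 50 mM Hepes pH 7.5, 50 mM NaCl, 5 mM MgCl2, 1 mM THP. Product NMN quantified by RapidFire ESI mass spectrometry, normalised to L-cystathionine internal control and background-subtracted; % inhibition converted to IC50.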

[8] = tested on: A2780 cells; assay: In-Vitro Cell Proliferation Assay (SRB); type: cell-based; conditions: Homo sapiens, A2780, 72 h
How it was run: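 A2780 cells treated 72 h at 37 °C, 5% CO2 with serially diluted compound, 0.1% DMSO final. Viable cells by sulforhodamine B staining after TCA fixation, absorbance 570 nm, background-subtracted for % inhibition and IC50; specificity checked by co-addition of NAM or NMN.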

[9] = tested on: A2780 cells; assay: In Vivo Xenograft Studies; conditions: A2780 xenograft in C.B-17 scid mice, p.o. BID for 5 or 10 days
Protocol: In Vivo Xenograft Studies: […] The compounds were formulated in 60:30:10 PEG-400:D5W: Ethanol and administered p.o., at the dose volume of 10 ml/kg BID for a duration of 5 or 10 days. The dose used for efficacy was selected from the MTD (Maximum Tolerated Dose) study. Mice were weighed and tumors measured using vernier calipers every alternate day. Tumor volume was calculated according to the formula (length×width^2)/2. All animal work was approved by the Institutional Animal Care and Use Committee of Biological Resource Centre, Singapore.

Sequence of NAMPT (P43490 whole entry): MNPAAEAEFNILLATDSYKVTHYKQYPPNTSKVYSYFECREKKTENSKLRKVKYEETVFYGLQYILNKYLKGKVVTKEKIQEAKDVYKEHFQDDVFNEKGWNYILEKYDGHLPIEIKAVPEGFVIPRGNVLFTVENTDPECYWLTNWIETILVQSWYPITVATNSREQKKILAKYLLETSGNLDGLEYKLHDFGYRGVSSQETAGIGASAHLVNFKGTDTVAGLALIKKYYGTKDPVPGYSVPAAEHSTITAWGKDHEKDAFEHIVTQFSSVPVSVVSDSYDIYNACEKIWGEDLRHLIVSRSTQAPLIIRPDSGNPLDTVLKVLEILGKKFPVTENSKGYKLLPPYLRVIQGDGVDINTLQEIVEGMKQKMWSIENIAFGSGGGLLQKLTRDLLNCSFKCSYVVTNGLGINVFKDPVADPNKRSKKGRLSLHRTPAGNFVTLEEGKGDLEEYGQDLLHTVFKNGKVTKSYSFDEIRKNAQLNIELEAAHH

Row | pIC50 [7] | pIC50 [8] | Structure (SMILES) | further results
1 |  |  | O=C(/C=C/c1cccnc1)NCCCCC1CCN(C(=O)c2ccccc2)CC1 [FK866, (E)-N-[4-(1-benzoylpiperidin-4-yl)butyl]-3-(pyridine-3-yl)-acrylamide] | apoptosis [1]: induces apoptosis; activities in tumor model [2]: anti-tumor, antimetastatic, and anti-angiogenic activities; tumor growth [3]: induces a delay in tumor growth; effect on MNNG-induced cell death [4]: chemosensitizing effect; effect on MNNG-induced cell death [5]: chemosensitizing effect
2 |  |  | N#C/N=C(\NCCCCCCOc1ccc(Cl)cc1)Nc1ccncc1 [CHS-828] | cell growth [6]: potently inhibits cell growth
3 | 8.15 | 8.46 | CCOc1ccccc1S(=O)(=O)c1ccc(CNC(=NC#N)Nc2ccncc2)cc1 [2-cyano-1-({4-[(2-ethoxybenzene)sulfonyl]phenyl}methyl)-3-(pyridin-4-yl)guanidine] | effect on tumor growth [9]: delayed tumor growth
4 | 8.32 | 8.12 | Cc1ncccc1S(=O)(=O)c1ccc(CNC(=NC#N)Nc2ccncc2)cc1 [2-cyano-1-{[4-(2-methylpyridine-3-sulfonyl)phenyl]methyl}-3-(pyridin-4-yl)guanidine] | 
5 | 8.35 | 7.88 | CS(=O)(=O)c1ccc(S(=O)(=O)c2ccc(CNC(=NC#N)Nc3ccncc3)cc2)cc1 [2-cyano-1-({4-[(4-methanesulfonylbenzene)sulfonyl]phenyl}methyl)-3-(pyridin-4-yl)guanidine] | 
6 | 8.27 | 8.27 | Cc1cc(F)ccc1S(=O)(=O)c1ccc(CNC(=NC#N)Nc2ccncc2)cc1 [2-cyano-1-({4-[(4-fluoro-2-methylbenzene)sulfonyl]phenyl}methyl)-3-(pyridin-4-yl)guanidine] | 
7 | 8.52 | 8.72 | COc1cc(Cl)ccc1S(=O)(=O)c1ccc(CNC(=NC#N)Nc2ccncc2)cc1 [1-({4-[(4-chloro-2-methoxybenzene)sulfonyl]phenyl}methyl)-2-cyano-3-(pyridin-4-yl)guanidine] | 
8 | 7.77 | 6.17 | N#C/N=C(\NCc1ccc(S(=O)(=O)c2ccccc2)cc1)NCc1cccnc1 [(E)-3-{[4-(benzenesulfonyl)phenyl]methyl}-2-cyano-1-(pyridin-3-ylmethyl)guanidine] | 
9 | 8.68 | 8.92 | Cn1c(S(=O)(=O)c2ccc(CNC(=NC#N)Nc3ccncc3)cc2)cc2ccccc21 [2-cyano-1-{[4-(1-methyl-1H-indole-2-sulfonyl)phenyl]methyl}-3-(pyridin-4-yl)guanidine] | 
10 | 9.10 | 8.60 | N#CN=C(NCc1ccc(S(=O)(=O)c2ccc(F)c(F)c2)cc1)Nc1ccncc1 [2-cyano-1-({4-[(3,4-difluorobenzene)sulfonyl]phenyl}methyl)-3-(pyridin-4-yl)guanidine] | 
11 | 8.28 | 8.46 | COc1ccc(C(C)C)cc1S(=O)(=O)c1ccc(CNC(=NC#N)Nc2ccncc2)cc1 [2-cyano-1-[(4-{[2-methoxy-5-(propan-2-yl)benzene]sulfonyl}phenyl)methyl]-3-(pyridin-4-yl)guanidine] | 
12 | 8.30 | 8.14 | CC(=O)c1ccc(S(=O)(=O)c2ccc(CNC(=NC#N)Nc3ccncc3)cc2)cc1 [1-({4-[(4-acetylbenzene)sulfonyl]phenyl}methyl)-2-cyano-3-(pyridin-4-yl)guanidine] | 
13 | 8.59 | 8.39 | N#C/N=C(\NCc1ccc(S(=O)(=O)c2cccc(Cl)c2)cc1)Nc1ccncc1 [(E)-3-({4-[(3-chlorobenzene)sulfonyl]phenyl}methyl)-2-cyano-1-(pyridin-4-yl)guanidine] | 
14 | 8.62 | 8.82 | Cc1ccc(S(=O)(=O)c2ccc(CNC(=NC#N)Nc3ccncc3)cc2)c(C)c1 [2-cyano-1-({4-[(2,4-dimethylbenzene)sulfonyl]phenyl}methyl)-3-(pyridin-4-yl)guanidine] | 
15 | 8.46 | 8.54 | N#CN=C(NCc1ccc(S(=O)(=O)c2cccc(-n3cccn3)c2)cc1)Nc1ccncc1 [2-cyano-1-[(4-{[3-(1H-pyrazol-1-yl)benzene]sulfonyl}phenyl)methyl]-3-(pyridin-4-yl)guanidine] | 
16 | 8.14 | 8.23 | COCc1cccc(S(=O)(=O)c2ccc(CNC(=NC#N)Nc3ccncc3)cc2)c1 [2-cyano-1-[(4-{[3-(methoxymethyl)benzene]sulfonyl}phenyl)methyl]-3-(pyridin-4-yl)guanidine] | 
17 | 8.34 | 8.80 | COc1cc(Cl)cc(S(=O)(=O)c2ccc(CNC(=NC#N)Nc3ccncc3)cc2)c1 [1-({4-[(3-chloro-5-methoxybenzene)sulfonyl]phenyl}methyl)-2-cyano-3-(pyridin-4-yl)guanidine] | 
18 | 8.51 | 8.41 | Cc1cc(S(=O)(=O)c2ccc(CNC(=NC#N)Nc3ccncc3)cc2)ccc1F [2-cyano-1-({4-[(4-fluoro-3-methylbenzene)sulfonyl]phenyl}methyl)-3-(pyridin-4-yl)guanidine] | 
19 | 8.77 | 8.21 | N#CN=C(NCc1ccc(S(=O)(=O)c2cccc(C#N)c2)cc1)Nc1ccncc1 [2-cyano-1-({4-[(3-cyanobenzene)sulfonyl]phenyl}methyl)-3-(pyridin-4-yl)guanidine] | 
20 | 8.30 | 8.19 | COc1ccc(Cl)cc1S(=O)(=O)c1ccc(CNC(=NC#N)Nc2ccncc2)cc1 [1-({4-[(5-chloro-2-methoxybenzene)sulfonyl]phenyl}methyl)-2-cyano-3-(pyridin-4-yl)guanidine] | 
21 | 8.48 | 8.80 | Cc1cc(Cl)cc(S(=O)(=O)c2ccc(CNC(=NC#N)Nc3ccncc3)cc2)c1 [1-({4-[(3-chloro-5-methylbenzene)sulfonyl]phenyl}methyl)-2-cyano-3-(pyridin-4-yl)guanidine] | 
22 | 8.19 | 8.00 | COc1ccc(S(=O)(=O)c2ccc(CN/C(=N\C#N)Nc3ccncc3)cc2)cc1 [2-cyano-1-({4-[(4-methoxybenzene)sulfonyl]phenyl}methyl)-3-(pyridin-4-yl)guanidine] | 
23 | 8.59 | 8.82 | CC(C)Oc1ccc(S(=O)(=O)c2ccc(CNC(=NC#N)Nc3ccncc3)cc2)cc1 [2-cyano-1-[(4-{[4-(propan-2-yloxy)benzene]sulfonyl}phenyl)methyl]-3-(pyridin-4-yl)guanidine] | 
24 | 8.70 | 8.72 | N#CN=C(NCc1ccc(S(=O)(=O)c2ccc(Cl)c(F)c2)cc1)Nc1ccncc1 [1-({4-[(4-chloro-3-fluorobenzene)sulfonyl]phenyl}methyl)-2-cyano-3-(pyridin-4-yl)guanidine] | 
25 | 8.72 | 8.48 | N#CN=C(NCc1ccc(S(=O)(=O)c2ccc(N3CCOCC3)nc2)cc1)Nc1ccncc1 [2-cyano-1-({4-[6-(morpholin-4-yl)pyridine-3-sulfonyl]phenyl}methyl)-3-(pyridin-4-yl)guanidine] | 
26 | 7.83 | 8.21 | Cc1ccc(S(=O)(=O)c2ccc(CNC(=NC#N)Nc3ccncc3)cc2)cc1F [2-cyano-1-({4-[(3-fluoro-4-methylbenzene)sulfonyl]phenyl}methyl)-3-(pyridin-4-yl)guanidine] | 
